The values below come from US12129237B2, “Substituted diaminocarboxamide and diaminocarbonitrile pyrimidines, compositions thereof, and methods of treatment therewith” (SIGNAL PHARMACEUTICALS, LLC, priority 2011, dated 2024).

In one assay the target is T1, JNK1 (Homo sapiens, UniProt P45983).
T1 construct: purchased Carna Biosciences
T1 sequence (P45983 whole entry): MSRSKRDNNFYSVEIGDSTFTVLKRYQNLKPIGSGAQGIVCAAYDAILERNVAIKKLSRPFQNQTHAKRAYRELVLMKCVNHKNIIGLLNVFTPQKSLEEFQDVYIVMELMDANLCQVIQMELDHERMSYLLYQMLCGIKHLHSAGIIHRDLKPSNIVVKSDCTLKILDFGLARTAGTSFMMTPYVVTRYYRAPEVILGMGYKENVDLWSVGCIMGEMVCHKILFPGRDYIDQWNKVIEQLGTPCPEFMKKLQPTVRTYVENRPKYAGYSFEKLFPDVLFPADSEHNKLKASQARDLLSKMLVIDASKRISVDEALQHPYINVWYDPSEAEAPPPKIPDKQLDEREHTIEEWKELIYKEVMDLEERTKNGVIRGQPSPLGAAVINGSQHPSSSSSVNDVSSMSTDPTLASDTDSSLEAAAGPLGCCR
The experiment in a line: JNK1 biochemical assays (one or more of: time resolved fluorescence, Z'-LYTE Cascade, radioactive). The conditions noted are these: Table 2; JNK1 IC50 activity level; read-out: Act. Level.
Protocol: JNK1 Assay. A 384-well time resolved fluorescence assay was used to monitor JNK1 activity. The JNK1 assay was run in the following assay buffer: 50 mM HEPES, 10 mM MgCl2, 1 mM EGTA, 2 mM DTT, and 0.01% Tween 20. To initiate the reaction 100 nM of ULight™-labeled 4EBP1 peptide (Perkin-Elmer) and 5 μM of ATP were mixed with 500 pM of JNK1 (Carna Biosciences), for a total assay volume of 20 μL in each well. The assay was incubated at room temperature for 1 h and terminated using a mixture of 30 mM EDTA and 4 nM Eu-anti-4EBP1, by adding 20 μL of stop solution to each well. Plates were read on a Perkin-Elmer Envision Reader.
JNK1 Assay. The JNK1 Z′-LYTE® Cascade kinase assay was run in the following buffer: 50 mM HEPES at pH 7.5, 0.01% BRIJ-35, 10 mM MgCl2, 1 mM EGTA, and 1 mM DTT. […] The assay was incubated at room temperature for 1 h. […] The data was then read on a fluorescence plate reader and analyzed.
JNK1 assay. The radioactive JNK kinase assay was carried out in a 96-well plate format at a final volume of 100 μL. […] JNK1 was diluted in the following dilution buffer (20 mM HEPES pH 7.6, 0.1 mM EDTA, 2.5 mM MgCl2, 0.004% (w/v) Triton X100, 2 μg/ml Leupeptin, 20 mM B-glycerol phosphate, 0.1 mM Na3VO4 dithiothreitol) and then pre-mixed with cJun diluted in the substrate solution buffer (20 mM HEPES pH 7.6, 50 mM NaCl, 0.1 mM EDTA, 2.5 mM MgCl2, 0.05% (w/v) Triton X100). […] The enzyme, substrate and inhibitor mixture was allowed to equilibrate at room temperature for 15 minutes. The reaction was started by the addition of 10 μL of 10×ATP in kinase buffer (130 mM MgCl2, 6 mM dithiothreitol, 150 mM para-nitrophenyl phosphate, 100 μCi/ml γ-[^33P]-ATP). Reactions were allowed to proceed for 60 minutes before precipitation of protein via trichloroacetic acid (7.2% TCA final). […] The precipitate was washed with Phosphate Buffered Saline and the amount of phosphate incorporated into cJun was quantified by scintillation counting using a Packard Topcount-NXT. All assays were conducted under conditions where phosphate incorporation was linear with respect to time and enzyme concentration.
Turning to `CS(=O)(=O)N[C@H]1CC[C@H](Nc2ncc(C(N)=O)c(Nc3ccccc3)n2)CC1` [Example B-5, 2-((1r,4r)-4-(methylsulfonamido)cyclohexylamino)-4-(phenylamino)pyrimidine-5-carboxamide], the IC50 is under 0.2 µM. Take `C[C@@H]1CC[C@@H](Nc2nc(N[C@@H]3CCc4ncccc4C3)ncc2C(N)=O)C[C@H]1O` [Example B-94, 4-((1R,3R,4R)-3-hydroxy-4-methylcyclohexylamino)-2-((R)-5,6,7,8-tetrahydroquinolin-6-ylamino)pyrimidine-5-carboxamide]: the IC50 is under 0.2 µM. As for `C[C@]1(O)CCC[C@@H](Nc2nc(N[C@@H]3CCc4ncccc4C3)ncc2C(N)=O)C1` [Example B-101, 4-((1R,3S)-3-hydroxy-3-methylcyclohexylamino)-2-((R)-5,6,7,8-tetrahydroquinolin-6-ylamino)pyrimidine-5-carboxamide], the IC50 was under 0.2 µM. On the same count and under the same terms, then `C[C@@H]1CC[C@@H](Nc2nc(N[C@H]3CCc4ncccc4C3)ncc2C(N)=O)C[C@H]1O` [Example B-93, 4-((1R,3R,4R)-3-hydroxy-4-methylcyclohexylamino)-2-((S)-5,6,7,8-tetrahydroquinolin-6-ylamino)pyrimidine-5-carboxamide], with under 0.2 µM; and `NC(=O)c1cnc(NCCc2cccs2)nc1Nc1ccccc1` [Example B-42, 4-(phenylamino)-2-(2-(thiophen-2-yl)ethylamino)pyrimidine-5-carboxamide], with 0.2 to 0.8 µM; and `COc1ccc(Nc2ncc(C(N)=O)c(Nc3ccccc3)n2)c(C)c1` [Example B-18, 2-(4-methoxy-2-methylphenylamino)-4-(phenylamino)pyrimidine-5-carboxamide], with under 0.2 µM.

Take `Cc1cc(Nc2ncc(C(N)=O)c(Nc3ccccc3)n2)n[nH]1` [Example B-33, 2-(5-methyl-1H-pyrazol-3-ylamino)-4-(phenylamino)pyrimidine-5-carboxamide]: the IC50 lay within 0.2 to 0.8 µM. As to `NC(=O)c1cnc(NC2CCCCC2)nc1Nc1ccccc1` [Example B-45, 2-(cyclohexylamino)-4-(phenylamino)pyrimidine-5-carboxamide], the IC50 is under 0.2 µM.

The assay is the same for the next values; noted with them: Table 3; JNK1 IC50 activity level; read-out: Act. Level.
Regarding `N#Cc1cnc(N[C@H]2CC[C@H](O)CC2)nc1N[C@@H]1CCCC[C@@H]1O` [Example C-31, 4-((1R,2S)-2-hydroxycyclohexylamino)-2-((1r,4R)-4-hydroxycyclohexylamino) pyrimidine-5-carbonitrile], the IC50 was in the range of 0.2 to 0.8 µM.

Regarding `CCC(C)(C)Nc1nc(N[C@H]2CC[C@H](O)CC2)ncc1C#N` [Example C-62, 2-((1r,4r)-4-hydroxycyclohexylamino)-4-(tert-pentylamino)pyrimidine-5-carbonitrile], the IC50 was under 0.2 µM.

Still in this assay, the particulars now being: one or more of the JNK1 biochemical assays; read-out: Act. Level (JNK1 IC50 activity level).
On to `CO[C@H]1CC[C@](C)(Nc2ncc(C(N)=O)c(N[C@@H]3CCC[C@H](O)C3)n2)CC1` [Example 216, 4-((1R,3S)-3-hydroxycyclohexylamino)-2-((1r,4R)-4-methoxy-1-methylcyclohexylamino)pyrimidine-5-carboxamide], for which the IC50 is under 0.2 µM. On the same count and under the same terms, the value for `NC(=O)c1cnc(N[C@H]2CC[C@H](OCC(F)(F)F)CC2)nc1N[C@@H]1CCC[C@H]1CO` [Example 331, 4-((1R,2R)-2-(hydroxymethyl)cyclopentylamino)-2-((1r,4R)-4-(2,2,2-trifluoroethoxy)cyclohexylamino)pyrimidine-5-carboxamide] was under 0.2 µM; that for `CCO[C@H]1CC[C@H](Nc2ncc(C(N)=O)c(N[C@@H](C)C(C)(C)C)n2)CC1` [Example 276, 4-((S)-3,3-dimethylbutan-2-ylamino)-2-((1r,4S)-4-ethoxycyclohexylamino)pyrimidine-5-carboxamide] was under 0.2 µM; that for `NC(=O)c1cnc(NC23CCC(O)(CC2)CC3)nc1NC12CC(C1)C2` [Example 417, 4-(bicyclo[1.1.1]pentan-1-ylamino)-2-(4-hydroxybicyclo[2.2.2]octan-1-ylamino)pyrimidine-5-carboxamide] was under 0.2 µM. Still for that read-out and setting: the value for `CC(C)(C)Nc1nc(N[C@@H]2CCC[C@](C)(O)C2)ncc1C(N)=O` [Example 380, 4-(tert-butylamino)-2-((1R,3S)-3-hydroxy-3-methylcyclohexylamino)pyrimidine-5-carboxamide] was under 0.2 µM; that for `NC(=O)c1cnc(N[C@H]2CC[C@H](O)CC2)nc1NCC1CC1` [Example 226, 4-(cyclopropylmethylamino)-2-((1r,4r)-4-hydroxycyclohexylamino)pyrimidine-5-carboxamide] was under 0.2 µM; that for `CCC(C)(CC)Nc1ncc(C(N)=O)c(N[C@@H]2CC[C@@H](C)[C@H](O)C2)n1` [Example 345, 4-((1R,3R,4R)-3-hydroxy-4-methylcyclohexylamino)-2-(3-methylpentan-3-ylamino)pyrimidine-5-carboxamide] was under 0.2 µM. Still for that read-out and setting: the value for `CO[C@H]1CC[C@H](Nc2ncc(C(N)=O)c(NC(C)(C)C3CC3)n2)CC1` [Example 315, 4-(2-cyclopropylpropan-2-ylamino)-2-((1r,4r)-4-methoxycyclohexylamino)pyrimidine-5-carboxamide] was under 0.2 µM; that for `CC1CCC1Nc1nc(N[C@H]2CC[C@H](OCC(F)(F)F)CC2)ncc1C(N)=O` (stereo partly drawn) [Example 258, 4-(2-methylcyclobutylamino)-2-((1r,4r)-4-(2,2,2-trifluoroethoxy)cyclohexylamino)pyrimidine-5-carboxamide] was under 0.2 µM; that for `NC(=O)c1cnc(NC23CCC(O)(CC2)CC3)nc1N[C@@H]1CCC[C@H](O)C1` [Example 229, 2-(4-hydroxybicyclo[2.2.2]octan-1-ylamino)-4-((1R,3S)-3-hydroxycyclohexylamino)pyrimidine-5-carboxamide] was under 0.2 µM.

Take `NC(=O)c1cnc(NC23CCC(F)(CC2)CC3)nc1N[C@@H]1CCC[C@H](O)C1` [Example 267, 2-(4-fluorobicyclo[2.2.2]octan-1-ylamino)-4-((1R,3S)-3-hydroxycyclohexylamino)pyrimidine-5-carboxamide]: the IC50 was under 0.2 µM. As to `CCC(C)(C)Nc1nc(N[C@H]2CC[C@H](OC3CC3)CC2)ncc1C(N)=O` [Example 382, 2-((1r,4r)-4-cyclopropoxycyclohexylamino)-4-(tert-pentylamino)pyrimidine-5-carboxamide], the IC50 was under 0.2 µM. Still for that read-out and setting: the value for `CC1(Nc2nc(NC34CCC(O)(CC3)C4)ncc2C(N)=O)CCCC1` [Example 446, 2-(4-hydroxybicyclo[2.2.1]heptan-1-ylamino)-4-(1-methylcyclopentylamino)pyrimidine-5-carboxamide] was under 0.2 µM. For the compound `CCO[C@H]1CC[C@H](Nc2ncc(C(N)=O)c(NC34CC(C3)C4)n2)CC1` [Example 344, 4-(bicyclo[1.1.1]pentan-1-ylamino)-2-((1r,4r)-4-ethoxycyclohexylamino)pyrimidine-5-carboxamide], the IC50 is under 0.2 µM.

Take `CC(C)(CO)Nc1nc(N[C@H]2CC[C@H](O)CC2)ncc1C(N)=O` [Example 311, 4-(1-hydroxy-2-methylpropan-2-ylamino)-2-((1r,4r)-4-hydroxycyclohexylamino)pyrimidine-5-carboxamide]: the IC50 was under 0.2 µM. In the case of `CC(C)Nc1nc(NC(C)(C)C)ncc1C(N)=O` [Example 227, 2-(tert-butylamino)-4-(isopropylamino)pyrimidine-5-carboxamide], the IC50 lay within 0.2 to 0.8 µM. For `CCC1(Nc2nc(N[C@H]3CC[C@H](O)CC3)ncc2C(N)=O)CCC1` [Example 362, 4-(1-ethylcyclobutylamino)-2-((1r,4r)-4-hydroxycyclohexylamino)pyrimidine-5-carboxamide], the IC50 was under 0.2 µM. Still for that read-out and setting: then `CC(C)(C)Nc1nc(NC2(C)CCOCC2)ncc1C(N)=O` [Example 389, 4-(tert-butylamino)-2-(4-methyltetrahydro-2H-pyran-4-ylamino)pyrimidine-5-carboxamide], with under 0.2 µM.

Staying with this assay, now noted: tested in one or more of the JNK1 biochemical assays; read-out: Act. Level (JNK1 biochemical assay IC50 activity level).
For the compound `CC(C)CC(=O)N1CCC(Nc2ncc(C(N)=O)c(NC3CCC3)n2)CC1` [Example A-107, 4-(cyclobutylamino)-2-(1-(3-methylbutanoyl)piperidin-4-ylamino)pyrimidine-5-carboxamide], the IC50 is under 0.2 µM. Still for that read-out and setting: the value for `CCC(=O)N[C@H]1CC[C@@H](Nc2nc(N[C@@H](C)C3CCCCC3)ncc2C(N)=O)CC1` [Example A-124, 2-((S)-1-cyclohexylethylamino)-4-((1s,4R)-4-propionamidocyclohexylamino)pyrimidine-5-carboxamide] was under 0.2 µM.

With `COC[C@H]1CC[C@@H](Nc2nc(N[C@@H]3CCN(C(C)=O)C3)ncc2C(N)=O)CC1` [Example A-84, 2-((R)-1-acetylpyrrolidin-3-ylamino)-4-((1s,4S)-4-(methoxymethyl)cyclohexylamino)pyrimidine-5-carboxamide], the IC50 lay within 0.2 to 0.8 µM. `NC(=O)c1cnc(NC2CC2)nc1N[C@H]1CC[C@@H](CO)CC1` [Example A-136, 2-(cyclopropylamino)-4-((1s,4s)-4-(hydroxymethyl)cyclohexylamino)pyrimidine-5-carboxamide]: the IC50 was in the range of 0.2 to 0.8 µM. With `CCNC(=O)[C@H]1CC[C@@H](Nc2nc(NC3CC3)ncc2C(N)=O)CC1` [Example A-137, 2-(cyclopropylamino)-4-((1s,4s)-4-(ethylcarbamoyl)cyclohexylamino)pyrimidine-5-carboxamide], the IC50 was in the range of 1 to 10 µM.

Turning to `CC(C)Nc1nc(N[C@H]2CC[C@H](CO)CC2)ncc1C(N)=O` [Example A-12, 2-((1r,4r)-4-(hydroxymethyl)cyclohexylamino)-4-(isopropylamino)pyrimidine-5-carboxamide], the IC50 was under 0.2 µM. Same read-out and setting: then `C[C@]1(O)CCC[C@@H](Nc2nc(N[C@H]3CC[C@H](O)CC3)ncc2C(N)=O)C1` [Example A-177, 4-((1R,3S)-3-hydroxy-3-methylcyclohexylamino)-2-((1r,4R)-4-hydroxycyclohexylamino)pyrimidine-5-carboxamide], with under 0.2 µM; and `NC(=O)c1cnc(NC2CCCCC2)nc1N[C@H]1CC[C@@H](O)CC1` [Example A-147, 2-(cyclohexylamino)-4-((1s,4s)-4-hydroxycyclohexylamino)pyrimidine-5-carboxamide], with under 0.2 µM.
